Data from patent US6511967B1, “Use of an internalizing transferrin receptor to image transgene expression” (The General Hospital Corporation, priority 1999, dated 2003).

What was measured:
Gli36EGFR cells [1] = tested on: Gli36EGFR cells
Experimental: Gli36EGFR cells were plated at approximately 10% confluency. Cells were infected the next day (MOI=5) with either one of three amplicons: EZ-TFR (FIG. 12), which was a control having a transferrin receptor gene, but lacking a p450 gene; EZ-p450 (FIG. 11), which was a second control with a p450 gene but no transferrin receptor gene; or PETZ (FIG. 8), which includes both the p450 and transferrin receptor genes. Following a 24 hour incubation with the viral amplicons, cyclophosphamide (CPA) was added in varying concentrations as indicated in the graph of FIG. 13. CPA is a chemotherapeutic compound that is metabolized by the expression product of the p450 gene (cyp2B1 in the rat). Cleavage of CPA yields an active metabolite, which is toxic to the cancer cells. Cell number was measured 72 hours later using a Coulter Counter. The data are presented in the graph in FIG. 13 as a percentage of control, where control cells are virally infected cells in the absence of CPA.

[2] = tested on: Gli36EGFR tumors infected with PETZ; assay: In vivo MR imaging of gene transfer in bilateral Gli36EGFR brain tumors (FIG. 9); design: species or system nude mice; conditions: 24 hours after tail-vein injection, 1 mg/kg; 3-D gradient echo
Excerpt: In another example of imaging of in vivo gene transfer, Gli36EGFR cells were implanted into nude mice 8 days prior to imaging to generate bilateral frontal tumors. On day 6 after implantation, tumors on the right were infected with the HSV-based amplicon PETZ (FIG. 8), which drives expression of an altered form of the TfR. Forty-eight hours after virus administration animals were imaged without contrast agent (T1-weighted pre-contrast scan; FIG. 9A) and then injected with Tf-SPDP-CLIO.
All contrast agents were injected by tail-vein administration (1 mg/kg Tf-SPDP-CLIO). Scans: (9A) T1 SE 300/16, FOV 8 cm, 256×256, 1.9 thk/0.2 spc; (9B) T1 SE [Omniscan], and (9C) T2 3D GR 38/20/5°, FOV 10 cm, 256×256, 0.5 thk/0.0 spc. [Tf-SPDP-CLIO.

Gli36EGFR cells [3] = assay: In vitro MR imaging of Gli36EGFR cells infected with PETZ amplicon and labeled with Tf-SPDP-CLIO (FIG. 10B); type: cell-based; conditions: MOI 20 or 4; 2 hours at 37° C.; especially at MOI of 20
Experimental: In another similar experiment, in vitro MR imaging was used to analyze viral transfer of the transferrin receptor and labeling with Tf-SPDP-CLIO. Gli36EGFR cells were uninfected or infected with an HSV-based amplicon (PETZ) driving expression of an altered form of the transferrin receptor (Multiplicity of Infection (MOI) of 20 or 4). After 24 hours, the cells were incubated with the indicated concentrations of Tf-SPDP-CLIO for 2 hours at 37° C. Following incubation, cells were harvested, washed, and pelleted for imaging at room temperature. As a control for non-specific uptake of unconjugated CLIO, infected and uninfected cells were also incubated in a similar fashion with 50 μg of CLIO alone. Concentration numbers along the top of the figure refer to the amount of iron added to the sample in the form of Tf-SPDP-CLIO. The ratio of Tf conjugated to CLIO for Tf-SPDP-CLIO was 4:1. […] The MR imaging conditions were as follows: SE (Spin Echo); TR 3000 ms, multiecho with TE 25, 50, 75, 100 ms. Slice thickness 1.9 mm, field of view 8 cm, matrix 256×256, 2 NEX, scan time 26:12 minutes.

ETR+ and ETR− tumors [4] = assay: Biodistribution of labeled reporter complex in excised ETR+ and ETR− tumors; type: in vivo, nude mice
Experimental: A similar 4-fold difference was also observed when In labeled Tf was injected into these animals. The same assay can be used to analyze the biodistribution of other new reporter complexes.
First, rat 9L gliosarcoma cells (Brain Tumor Research Center, San Francisco, Calif.) were grown in Dulbecco's modified Eagle's medium (DMEM, Cellgro, Mediatech, Washington, D.C.) containing 10% fetal bovine serum (FBS, Cellgro).
Then, ETR− and ETR+ tumors were grown in nude mice by injecting […] cells of either cell line into the left and right flanks of animals (n=12). Each animal was implanted with both tumors in each flank so that it could serve as its own control. Animals were used for histology, MR, and/or biodistribution studies 10 to 14 days after tumor inoculation. The growth characteristics of the tumors were similar and by day 12 all animals had developed tumors 200-400 mg in size.

Gli36#6 = assay: In vitro MR imaging of Gli36#6 cells infected with PETZ amplicon and incubated with Tf-MION (FIG. 10A); type: cell-based; conditions: 10 μg Tf-MION
Experimental: In this figure, concentration labels refer to the amount of iron molecules added to the sample. […] Following infection, the cells were allowed to recover and were washed, pelleted, and imaged at room temperature as follows: SE (Spin Echo): TR 3000 ms, multiecho with TE 25, 50, 75, 100ms. Slice thickness 1.9 mm, field of view 8 cm, matrix 256×256, 2 NEX, scan time 26:12 minutes.

ETR+ and ETR− tumors [5] = assay: In vivo MR imaging of mice with ETR+ and ETR− tumors after intravenous Tf-MION; design: species or system nude mice; conditions: then tumoral signal intensity returned to baseline
Experimental: MR imaging was performed in live animals using a 1.5 T superconducting magnet (Signa 5.0; GE Medical Systems, Milwaukee, Wis.) using a 5-inch surface coil. […] Slice thickness was 3 mm. The field of view (FOV) was 10 cm^2, using a 256×256 imaging matrix and 2-4 acquisition averages. Signal intensity (SI) measurements were obtained in regions of interest (ROI) from tumor and background. To display MION-Tf induced changes, R2 maps of tumors calculated from spin echo images were superimposed on anatomic maps (T1 weighted images). Semiquantitation was done by calibrating R2 maps to known concentrations of radiolabeled superparagmagnetic probes.

9L3.9 cells = assay: In vitro MR imaging of 9L3.9 cell pellets incubated with reporter complexes (FIG. 7); type: cell-based, rat; conditions: spin echo MR imaging
Experimental: Concentration labels in FIG. 7 refer to the amount of iron (reporter complex) added to the sample.
Incubations of the reporter complexes with the cells were carried out at 37° C. The cells were washed and pelleted, and pellets were imaged in microfuge test tubes at room temperature as follows: SE (Spin Echo): TR 3000 ms, multi-echo with TE 25, 50, 75, 100 ms. Slice thickness was 1.9 mm, field of view 8 cm, matrix 256×256, 2 NEX, scan time 26:12 minutes. As shown at the top row in the figure, the Tf-SPDP-CLIO contrast agent provided a change in measured signal at far lower concentrations of the reporter complex.

O=P1(N(CCCl)CCCl)NCCCO1 (stereo not drawn) [CPA, cyclophosphamide]
cells alive, percent of control, no amplicon (Gli36EGFR cells [1]; 10^3 μM CPA, 72 hours): about 80% | cells alive, percent of control, EZ-TFR amplicon (Gli36EGFR cells [1]; 10^3 μM CPA, 72 hours, MOI=5): about 80% | cells alive, percent of control, PETZ amplicon (Gli36EGFR cells [1]; 10^3 μM CPA, 72 hours, MOI=5): less than 10% | CPA concentration from which cell killing is significantly increased (Gli36EGFR cells [1]; PETZ and EZ-p450 amplicons): 10^1 μM

Tf-SPDP-CLIO: holo-Tf conjugated to CLIO using the crosslinking agent N-succinimidyl 3-(2-pyridyldithio) propionate (SPDP)
appearance of PETZ-infected tumor in MR image [2]: dark mass | change in MRI following infection with amplicons expressing the altered transferrin receptor (Gli36EGFR cells [3]): dramatic change in MRI at lower concentrations of iron

In labeled Tf: transferrin labeled with In (radioisotope) [reference compound]
difference in tumor accumulation, ETR+ vs ETR− tumors (ETR+ and ETR− tumors [4]; ETR+ vs ETR− tumors): ~4 fold

Tf-MION: human holo-transferrin covalently conjugated to dextran coated monocrystalline iron oxide nanoparticles by the periodate method
mean accumulation in ETR+ tumors (ETR+ and ETR− tumors [4]; 24 hours after IV administration): 3.2 % ID/g | mean accumulation in ETR− tumors (ETR+ and ETR− tumors [4]; 24 hours after IV administration, same animal): 0.8 % ID/g | change of MR signal of cell pellet due to TfR expression after PETZ infection (Gli36#6): dramatically altered the MR signal | persistence of MR signal intensity differences of tumors (ETR+ and ETR− tumors [5]): approximately 7 days

Tf-CLIO: holo-Tf conjugated to cross-linked iron oxide nanoparticles (CLIO) using the periodate method
contrast compared with the other reporter complexes (9L3.9 cells): better than the Tf-MION, but not as good as the Tf-SPDP-CLIO
